Source: PMC10063609, “Discovery of novel cardiac troponin activators using fluorescence polarization-based high throughput screening assays” (Scientific Reports, 2023)
Structures can show the parent of a compound that is named as a salt. *1 amine or outer side, *2 acyl side, *3 side chain or, on linkers, in order; H or OH if unused. Where a SMILES comes first, the peptide text is derived from it. Bridges are numbered along the chain shown (N, C = ends). [ ]: non-standard residue; d: D form. The star is where a group is joined. hTyr(3S-OH,4S-OH,3'-OSO3H) = N[C@H](C(=O)O)[C@H](O)[C@@H](O)c1ccc(O)c(OS(=O)(=O)O)c1; Orn(4R-OH,5R-OH) = O=C([C@H](C[C@@H](O)[C@@H](O)N[*:3])N[*:1])[*:2]; Pro(3S-OH,4S-Me) = C[C@H]1CN[C@H](C(=O)O)[C@H]1O; X1 = CCCCCOc1ccc(-c2cc(-c3ccc(C(=O)*)cc3)no2)cc1; Gln(3R-OH) = NC(=O)C[C@@H](O)[C@H](N)C(=O)O; Hyp = O=C(O)[C@@H]1C[C@@H](O)CN1

What follows are compounds tested against interaction between cTnC and switch peptide of cTnI (cTnISP) (Homo sapiens, UniProt P63316) (assay: Fluorescence polarization HTS and dose-response, cTnC/FAM-cTnISP). Conditions: not given.
Format: binding

Row | Compound | FP (mP)
1 | O=[N+]([O-])c1ccc(CNc2nc(NCc3cccc(C(F)(F)F)c3)nc3nc[nH]c23)cc1 [TNP] | 90.9
2 | (S)-(+)-Niguldipine hydrochloride | 85.7

Same assay, conditions: cTnISP primary screen, ENZO Screenwell library, single concentration 50 μmol/L

Row | Compound | FP (mP)
3 | CCN(CC)CCOc1ccc(C(=C(Cl)c2ccccc2)c2ccccc2)cc1 [Clomiphene Citrate] | 63.2
4 | OCCN1CCN(CCCN2c3ccccc3Sc3ccc(C(F)(F)F)cc32)CC1 [Fluphenazine.HCl] | 76.1
5 | CCCCCOc1ccc(-c2cc(-c3ccc(C(=O)N[C@H]4C[C@@H](O)[C@@H](O)NC(=O)[C@@H]5[C@@H](O)[C@@H](C)CN5C(=O)[C@H]([C@H](O)CC(N)=O)NC(=O)[C@H]([C@H](O)[C@@H](O)c5ccc(O)c(OS(=O)(=O)O)c5)NC(=O)[C@@H]5C[C@@H](O)CN5C(=O)[C@H]([C@@H](C)O)NC4=O)cc3)no2)cc1 [Micafungin] (X1-[Orn(4R-OH,5R-OH)]T[Hyp][hTyr(3S-OH,4S-OH,3'-OSO3H)][Gln(3R-OH)][Pro(3S-OH,4S-Me)]; lactam 1-C) | 128.6
6 | CN(C)CCCN1c2ccccc2Sc2ccc(Cl)cc21 [Chlorpromazine.HCl] | 88.9
7 | C[C@@H](NCCCc1cccc(C(F)(F)F)c1)c1cccc2ccccc12 [Cinacalcet.HCl] | 82.4
8 | CC(C)/N=c1\cc2n(-c3ccc(Cl)cc3)c3ccccc3nc-2cc1Nc1ccc(Cl)cc1 [Clofazimine] | 85.2

Next, values leading:

Row | FP (mP) | Compound
9 | 73.2 | OCCN1CCN(CCCN2c3ccccc3Sc3ccc(Cl)cc32)CC1 [Perphenazine]
10 | 88.2 | Clc1ccc(C(Cn2ccnc2)OCc2csc3c(Cl)cccc23)c(Cl)c1 (centres unmarked) [Sertaconazole]
11 | 74.3 | CSc1ccc2c(c1)N(CCC1CCCCN1C)c1ccccc1S2 (centres unmarked) [Thioridazine.HCl]
12 | 60.7 | CN(C)CCOc1ccc(/C(=C(/CCCl)c2ccccc2)c2ccccc2)cc1 [Toremifene Base]
13 | 69.1 | CC/C(=C(\c1ccccc1)c1ccc(OCCN(C)C)cc1)c1ccccc1 [Tamoxifen Citrate]
14 | 119.8 | N[C@@H](Cc1cc(I)c(Oc2cc(I)c(O)c(I)c2)c(I)c1)C(=O)[O-].[Na+] [Levothyroxine·Na]

Same assay, conditions: cTnISP primary screen, LOPAC 1280 library, single concentration 50 μmol/L

Row | Compound | FP (mP)
15 | O=C(c1ccc(Nc2nccc(-c3cc4ccccc4s3)n2)cc1)N1CCC(N2CCCC2)CC1 [IKK-16 dihydrochloride] | 84.3
16 | Cc1cc(CN)cc(C)c1NC(=O)c1ccc(-c2cc(Cl)ccc2Cl)o1 [CYM50358] | 84.1
17 | OCCN1CCN(CCCN2c3ccccc3Sc3ccc(C(F)(F)F)cc32)CC1 [Fluphenazine dihydrochloride] | 87.3
18 | Cc1c2ccncc2c(C)c2c1[nH]c1ccccc12 [Ellipticine] | 86.1
19 | Br.Cc1cc2nc(NCCCO)n(CC(=O)c3cc(C(C)(C)C)c(O)c(C(C)(C)C)c3)c2cc1C [CID2858522] | 89.6
20 | Cc1nc(Nc2cnn(C3CCNCC3)c2)nc2c1N(C)C(=O)c1cc3ccccc3cc1N2C [HTH 01-015] | 87
21 | CCOC(=O)c1c(CSc2ccccc2)n(C)c2cc(Br)c(O)c(CN(C)C)c12.Cl [Arbidol hydrochloride] | 89.4
22 | CN(C)CCCN1c2ccccc2Sc2ccc(Cl)cc21 [Chlorpromazine.HCl] | 91.3
23 | O=C1NCN(c2ccccc2)C12CCN(CCCC(c1ccc(F)cc1)c1ccc(F)cc1)CC2 [Fluspirilene] | 88.6
24 | CCN(CC)CCOc1ccc(/C(=C(/Cl)c2ccccc2)c2ccccc2)cc1.Cl [Enclomiphene hydrochloride] | 78.4
25 | Clc1ccc(C(c2ccc(Cl)cc2)n2cc[n+](CC(OCc3ccc(Cl)cc3Cl)c3ccc(Cl)cc3Cl)c2)cc1 (centres unmarked) [Calmidazolium chloride] | 83.6
26 | O=C(O)C(O)C(O)C(=O)O.Oc1ccc2c(c1)CC[C@H](c1ccccc1)[C@@H]2c1ccc(OCCN2CCCC2)cc1 [Lasofoxifene tartrate] | 86.8
27 | Cc1cc(CN2CCN(c3c(Br)cnc4nc(-c5ccc(N6CCN(C)CC6)cc5)[nH]c34)CC2)no1 [CCT 137690] | 87
28 | c1ccc2cc(-c3ncc[nH]3)ccc2c1 [Benazoline oxalate] | 83.7
29 | BMS-189453 | 88.8

More lines, now with the values ahead:

Row | FP (mP) | Compound
30 | 84.5 | CN1CCN(CCCN2c3ccccc3Sc3ccc(C(F)(F)F)cc32)CC1 [Trifluoperazine dihydrochloride]
31 | 89.4 | CSc1ccc2c(c1)N(CCC1CCCCN1C)c1ccccc1S2 (centres unmarked) [Thioridazine.HCl]
32 | 86.4 | CCC(=O)Nc1cccc(Oc2nc(Nc3ccc(N4CCN(C)CC4)cc3OC)ncc2Cl)c1 [WZ4003]
33 | 86.2 | CN1CCN(CCCN2c3ccccc3Sc3ccc(Cl)cc32)CC1 [Prochlorperazine dimaleate]
34 | 88.7 | CC(C)[C@H]1c2ccc(F)cc2CC[C@@]1(CCN(C)CCCc1nc2ccccc2[nH]1)OC(=O)C1CC1 [NNC 55-0396]

Same assay, conditions: cTnISP primary screen, TOCRIScreen library, single concentration 50 μmol/L

Row | Compound | FP (mP)
35 | CCc1ccc(OCc2ccccc2C(=O)Nc2ccc3nc(C)cc(N)c3c2)cc1 [JTC 801] | 84.3
36 | O=C(c1ccc(Nc2nccc(-c3cc4ccccc4s3)n2)cc1)N1CCC(N2CCCC2)CC1 [IKK 16] | 82
37 | Cc1cc(N2C[C@@H](C)N[C@@H](C)C2)ncc1-c1ccc(-c2nc3c(ccn3C)c(=O)[nH]2)cc1 [AZ 6102] | 83.4
38 | CN1CCN(c2ccc(/C=C(\C#N)c3ccccc3Br)cc2)CC1.Cl.Cl [DG 172 dihydrochloride] | 81
39 | CC(C)c1cnn2c(NCc3ccccc3)cc(NCCCCCCN)nc12.Cl.Cl [BS 181 dihydrochloride] | 73.2
40 | Cc1c(NC(=O)OC[C@@H]2COCCN2)cn2ncnc(Nc3ccc4c(cnn4Cc4cccc(F)c4)c3)c12.Cl.Cl [BMS 599626 dihydrochloride] | 88.2
41 | Cc1[nH]c(/C=C2\C(=O)Nc3ccc(S(=O)(=O)N(C)c4cccc(Cl)c4)cc32)c(C)c1C(=O)N1CCN(C)CC1 [SU 11274] | 64.5
42 | CCN1CCN(Cc2ccc(C(=O)Nc3ccc(C)c(Oc4ccc5c(c4)CC(=O)N5)c3)cc2C(F)(F)F)CC1.Cl.Cl [DDR1-IN-1 dihydrochloride] | 74.4
43 | CCn1c(=O)c(-c2ccc(Cl)cc2Cl)cc2cnc(Nc3ccc(N4CCNCC4)c(F)c3)nc21 [FRAX 486] | 83.2
44 | Cc1nc(Nc2cnn(C3CCNCC3)c2)nc2c1N(C)C(=O)c1cc3ccccc3cc1N2C [HTH 01-015] | 87.1
45 | CCN(CC)CCCCN1c2ccccc2Oc2ccc(Cl)cc21.Cl [10-DEBC hydrochloride] | 82.8
46 | CN(C(=O)CN1C(=O)COc2cc(Cl)c(Cl)cc21)[C@@H](CN1CCCC1)c1ccc(-c2cccc(C(N)=O)c2)cc1.Cl [GSK 1562590 hydrochloride] | 89.9
47 | COc1ccc(N(C(=O)Oc2c(C)cccc2C)c2ccnc(Nc3ccc(N4CCN(C)CC4)cc3)n2)c(OC)c1 [WH-4-023] | 56.3
48 | CCCCCCCCNC(=O)/C(C#N)=C/c1cn(CCCN(C)C)c2ccccc12 [Dynole 34-2] | 64.1
49 | CCOc1cc2ncc(C#N)c(Nc3ccc(OCc4cccc(F)c4)c(Cl)c3)c2cc1NC(=O)/C=C/CN(C)C [HKI 357] | 73.4
50 | CCCC[C@@H](C=O)NC(=O)[C@H](CC(C)C)NC(=O)OCc1ccccc1 [Calpeptin] | 121.8
51 | OCCNC1CCCc2c1[nH]c1ccc(-c3ccccc3)cc21 (centres unmarked) [CASIN] | 80.4
52 | CCOc1cc(C(=O)N2CCC(N3CCN(C)CC3)CC2)ccc1Nc1ncc2c(n1)N(C1CCCC1)c1ccccc1C(=O)N2C [ERK5-IN-1] | 64.9
53 | COc1cc2nc(N3CCC(N4CCCCC4)CC3)nc(NC3CCCCCC3)c2cc1OC.Cl.Cl [C 021 dihydrochloride] | 87.1
54 | O=C1CCc2ccc(OCCCCN3CCN(c4cccc(Cl)c4Cl)CC3)cc2N1 [Aripiprazole] | 86
55 | CCN1CCN(Cc2ccc(-c3cc4c(N[C@H](C)c5ccccc5)ncnc4[nH]3)cc2)CC1 [AEE 788] | 77.8
56 | Cc1cc(CN2CCN(c3c(Br)cnc4nc(-c5ccc(N6CCN(C)CC6)cc5)[nH]c34)CC2)no1 [CCT 137690] | 83.6
57 | CC(C)COCC(CN(Cc1ccccc1)c1ccccc1)N1CCCC1 (centres unmarked) [Bepridil hydrochloride] | 87
58 | Cc1c(-c2ccc(O)cc2)n(Cc2ccc(OCCN3CCCCCC3)cc2)c2ccc(O)cc12 [Bazedoxifene acetate] | 74.5

Second part, the compound after the results:

Row | FP (mP) | Compound
59 | 76.4 | Cc1[nH]c(/C=C2\C(=O)Nc3ccc(S(=O)(=O)Cc4c(Cl)cccc4Cl)cc32)c(C)c1C(=O)N1CCC[C@@H]1CN1CCCC1 [PHA 665752]
60 | 70.3 | O=C(Nc1cc(C(F)(F)F)cc(C(F)(F)F)c1)c1cnc(Cl)nc1C(F)(F)F [SP 100030]
61 | 68.4 | Nc1ncnc2c1c(-c1cccc(OCc3ccccc3)c1)cn2C1CC(CN2CCCC2)C1 (centres unmarked) [NVP ADW 742]
62 | 80.5 | CCCc1cc(C)[nH]c(=O)c1CNC(=O)c1cc(-c2ccc(N3CCN(C(C)C)CC3)nc2)cc2c1cnn2C(C)C [UNC 1999]
63 | 88 | COc1cc(C(=O)NC2CCN(C)CC2)c(F)cc1Nc1ncc2c(n1)N(C1CCCC1)CC(F)(F)C(=O)N2C.Cl [TAK 960 hydrochloride]
64 | 81.2 | COc1cc(N2CCN(C)CC2)ccc1Nc1ncc2c(n1)N(C)c1ccccc1C(=O)N2 [XMD 8-87]
65 | 87.5 | CC(C)(Cc1ccc2ccccc2c1)NC[C@@H](O)COc1cccc(Cl)c1C#N.Cl [NPS 2143 hydrochloride]
66 | 64 | Cn1cc(-c2[nH]c3cc(NC(=O)[C@H](N)C4CCCCC4)cc4c3c2C=NNC4=O)cn1 [PF 477736]
67 | 84.6 | COc1cc(N2CCC(O)CC2)ccc1Nc1cc(Nc2ccccc2S(=O)(=O)C(C)C)c2cc[nH]c2n1.Cl.Cl [Mps1-IN-1 dihydrochloride]
68 | 79 | COc1ccc(CCN(C)CCCOc2ccc(S(=O)(=O)c3c(C(C)C)c4ccccc4n3C)cc2)cc1OC.O=C(O)C(=O)O [SR 33805 oxalate]
69 | 80.2 | COc1ccc(Cl)cc1NC(=O)Nc1cc(C)nc2ccccc12 [PQ 401]
70 | 89.2 | COc1cc2c(Nc3ccc(NC(=O)c4ccccc4)cc3)ncnc2cc1OCCCN1CCOCC1 [ZM 447439]
71 | 78.2 | CN1CCN(CCCN2c3ccccc3Sc3ccc(Cl)cc32)CC1 [Prochlorperazine dimaleate]
72 | 65 | CS(=O)(=O)O.c1cc2c(cc1C1CCCCC1)c1c3n2CCNC3CCC1 (centres unmarked) [Tetrindole mesylate]
73 | 89.5 | CCN(CC)CCCC(C)Nc1nc(C)cc(Nc2ccc3nc(C)cc(N)c3c2)n1 (centres unmarked) [NSC 23766]
74 | 62.2 | CC/C(=C(\c1ccccc1)c1ccc(OCCN(C)C)cc1)c1ccccc1 [Tamoxifen Citrate]
